These are literature values, as cited in US9694080B2, “Polymer release system” (EGALET LTD., priority 2001, dated 2017).

SMILES strings stand for the structures.

Consider `COc1ccccc1OCCNCC(O)COc1cccc2[nH]c3ccccc3c12` (stereo not shown) [Carvedilol], for which, where the note is “literature”, the dose linearity range is 6.25 to 50 mg. Further, for the setting “timed-release capsules, Nolte et al”, the “absorption in the large intestine, share of the total absorption” value is listed as “approximately 10%”.
As for `COc1ccccc1OCCNC[C@@H](O)COc1cccc2[nH]c3ccccc3c12` [R(+)], the “beta effect relative to S(−)” value in the data set on β1 and β2 was 1/100. Also, the “α effect relative to S(−)” value with α-adrenoceptor is reported as “the same α effect”.
